Assay results: patent publication EP4385491A1, “PH-STABLE BIOTECHNOLOGY COMPOSITION BASED ON LACCASE FOR TARGETED DEGRADATION OF COLOURED MELANOIDINES AND/OR PHENOLIC ORGANIC COMPOUNDS ON DENSE SURFACES” (SkyLab AG, priority 2022, dated 2024)

Details: pH 3.0, coffee solution, 60 min

Degradation of melanoidins and phenolic organic compounds, % (40 ± 1°C, 325 nm, laccase 0.25 wt.% raw material (0.0875 wt.% active), hydrogen peroxide 0.01%): -6.0%
SMILES: OO [0.01% hydrogen peroxide solution, hydrogen peroxide]
activity against melanoidins and phenolic organic compounds (in words): low degradation
